Data published in patent US8536132B2, “Lymphatic zip codes in tumors and pre-malignant lesions” (Sanford-Burnham Medical Research Institute, priority 2006, dated 2013).
“Also recorded” adds a separate entry of the source. Marks after values point to notes of the source that are not given here. Ends that are not written are not given here. * marks the point of attachment. FITC = O=C1OC2(c3ccc(O)cc3Oc3cc(O)ccc32)c2ccc(NC(=S)*)cc21

Experiments:
[1] = test system: the other tumors, including the skin cancers; assay: Fluorescein-labeled LSD peptide homing to other tumors; assay type: in vivo, mouse; conditions: fluorescein-labeled peptide i.v.
Method: (§1) The frozen sections were prepared for immunohistological analysis.

KRIB tumors = assay: Fluorescein-labeled LSD peptide homing to KRIB tumors; assay type: in vivo, mouse; conditions: fluorescein-labeled peptide i.v.
Method: as §1

C8161 tumors = assay: Tissue distribution of fluorescein-conjugated LSD peptide in C8161 tumor mice; assay type: in vivo, mouse; design: fluorescence in all other tissues except tumors: dose or concentration left out as unconfirmed; conditions: for fluorescent peptide in C8161 tumors and control organs: fluorescein-conjugate peptide i.v., 2 hrs circulation
Method: as §1

[2] = test system: K14-HPV16/E2 cervical lesions; assay: Distribution of fluorescent peptides in K14-HPV16/E2 mice with cervical lesions; assay type: in vivo, mouse; conditions: labeled peptide i.v.
Method: as §1

[3] = test system: PPC1, M12, DU145, and LNCaP orthotopic xenografts; assay: Fluorescein-conjugated REA peptide homing to orthotopic human prostate cancer xenografts; assay type: in vivo, mouse
Method: Custom immunization to produce a rabbit antiserum against mouse Prox-1 was performed by Proteintech Inc. New Zealand White rabbits were immunized with a fusion protein of GST-C-terminal fragment of Prox-1 protein. The antibody was affinity purified on the fusion protein and absorbed with GST. […] Antibodies against the lymphatic markers anti-LYVE-1 (Laakkonen et al., 2002) and anti-podoplanin (kindly provided by T. Petrova and K. Alitalo), rat monoclonal anti-mouse CD31 (BD Pharmingen), rat anti-mouse MECA-32 (Pharmingen), rabbit polyclonal anti-T7 phage, and rat anti-mouse VEGFR3 were used for immunohistochemical staining of frozen tissue sections as described (Joyce et al., 2003; Laakkonen et al., 2002). The corresponding secondary antibodies were added and incubated for 1 hr at room temperature: AlexaFluor-488 goat anti-rat or rabbit IgG (1:1000; Molecular Probes, Eugene, Oreg.), AlexaFluor-594 goat anti-rat or rabbit IgG (1:1000, Molecular Probes), AlexaFluor-594 donkey anti-mouse or goat IgG (1:1000, Molecular Probes), and AlexaFluor-488 donkey anti-mouse or goat IgG (1:1000; Molecular Probes), respectively. The slides were washed three times with PBS and mounted in Vectashield Mounting Medium with DAPI (Vector Laboratories, Burlingame, Calif.). […]

CXCR4 = biological target: T1, CXCR4 (Homo sapiens, UniProt P61073); assay: Phage binding to CXCR4-transfected 293T cells
T1 construct: expressed in transfected cells; host or cells: 293T cells, transient transfection with FuGene 6
Method: The 293T cells were transfected with plasmids encoding CXCR4 (Helbig et al., 2003) or VEGFR2 (Borges et al., 2000) using FuGene 6 transfection reagent (Roche Diagnostics, Indianapolis, Ind.). Briefly, plasmid (10 μg) was mixed with 900 μl of serumfree DMEM and 50 μl of FuGene and incubated for 15 min at room temperature before adding the mixture to the cells. The cells were detached using EDTA after 48 hrs post transfection and washed with PBS containing 1% BSA. Phage (5×10^9 pfu) were incubated with the transfected cells and bound phage were rescued and titrated. For competitive binding assay, the cognate peptide (150 μg/ml) or antibody (50 μg/ml) was added during incubating of the phage with cells. Targeted proapoptotic peptide treatment of tumor-bearing mice Prostate cancer model. Orthotopic xenografted prostate tumors were established by injecting 1×10^6 PPC1 human prostate cancer cells into the mouse prostate. Fifteen days post inoculation, the mice were intravenously injected with D(KLAKLAK)2-CREAGRKAC (SEQ ID NO:41), an equimolar mixture of D(KLAKLAK)2 (SEQ ID NO:19) and CREAGRKAC (SEQ ID NO:6), or PBS. Biweekly injections of 100 μg/dose/mouse were given for three weeks. Melanoma model. Nude BALB/c mice were subcutaneously injected with 1×10^6 C8161 human melanoma cells. Treatment started when mean tumor volumes reached about 100 mm3. Mice with size-matched tumors were randomized into three groups. The therapeutic group received a chimera of tumor homing peptide with the proapoptotic motif (D(KLAKLAK)2-CLSDCGKRKC; SEQ ID NO:42). The control groups received an equimolar mixture of CLSDGKRKC (SEQ ID NO:4) and D(KLAKLAK)2 (SEQ ID NO:19), or PBS alone. The tumor-bearing mice were intravenously injected with 200 μg/dose/mouse once a week for three weeks. The mice were monitored for weight loss, and tumors were dissected and weighed at the termination of the experiment. Histological analysis was performed to evaluate the density of tumor lymphatics and blood vessels. The animal experiments reported here were approved by The Burnham Institute Animal Research Committee.

[4] = test system: cell suspensions prepared from C8161 tumors; assay: Phage binding to cell suspensions prepared from C8161 tumors; assay type: cell-based, mouse; conditions: phage clone, ex vivo
[5] = test system: MDA-MB-435 orthotopic xenografts; assay: In vivo phage homing to MDA-MB-435 orthotopic xenografts; design: species or system mouse
Method: (§2) The following cell lines were maintained in DMEM supplemented with 10% FCS: C8161 human melanoma, MDA-MB-435 human breast cancer, KRIB human osteosarcoma, and human prostate cancer cells PPC1, DU145. LNCaP human prostate cancer cell line was grown in RPMI 1640 medium with 10 mM HEPES, 1 mM sodium pyruvate and 1.5 g/L sodium bicarbonate supplemented with 10% FCS. M12 human prostate cancer cell line was cultured in RPMI 1640 with 5 μg/ml insulin-transferrin-sodium selenite (ITS), 2.5 μg/ml fungizone, 50 μg/ml gentamycin, 0.2 μM dexamethasone, 10 ng/ml epidermal growth factor (EGF), and 5% FCS (Bae et al., 1998). To produce tumors, nude BALB/c and C56BL/6 mice were subcutaneously (C8161, KRIB, and PPC1) or orthotopically ([…], PPC1, DU145, M12, and LNCaP) injected with 1×10^6 tumor cells. Transgenic mouse tumor models included TRAMP prostate cancer, MMTV-PyMT breast cancer, and K14-HPV16 cervical cancer. To initiate cervical carcinogenesis, female K14-HPV16 mice (Arbeit et al., 1994) were treated with 17β-estradiol (E2; (Arbeit et al., 1996; Giraudo et al., 2004). Briefly, one-month-old virgin female transgenic (heterozygous K14-HPV16, 1203#1) and nontransgenic (FVB/n) mice were anesthetized with isoflurane, and continuous release pellets that deliver E2 at doses of 0.05 mg over 60 days (Innovative Research of America, Sarasota, Fla., USA) were implanted subcutaneously in the dorsal back skin. Subsequent pellets were implanted at 3 and 5 months of age for a total of 6 months of hormone treatment. K14-HPV16 mice were maintained in the FVB/n background (FVB/n; The Jackson Laboratory). The mice were maintained in accordance with the University of California, San Francisco (UCSF) institutional guidelines governing the care of laboratory mice. The animal experimentation was approved by Animal Research Committees at UCSF or The Burnham Institute.
(§3) In vivo homing specificity of phage was tested as described (Hoffman, 2004). Briefly, mice bearing tumors were anesthetized and intravenously injected with 5×10^9 pfu of phage. After 7 min, the mice were perfused through the heart with PBS containing 0.5% BSA. The tumor and control organs were dissected from each mouse and the phage were rescued and tittered. For histology analysis, the mice were perfused with 4% PFA 30 min after the injection of phage. Tissues were embedded in Tissue-Tek O.C.T. and 5 μm sections were prepared for phage immunostaining.

TRAMP prostate tumors = assay: In vivo phage homing to TRAMP prostate tumors; design: species or system mouse
Method: as §2, §3

C8161 xenografts = assay: In vivo phage homing to C8161 xenograft tumors; design: species or system mouse; conditions: for phage homing to C8161 tumors (in words): i.v. injected phage, C8161 xenograft mice
Method: as §2, §3

K14-HPV16 skin cancer = assay: In vivo homing to K14-HPV16 skin cancer; design: species or system mouse
Method: as §2, §3

[6] = test system: PPC1 orthotopic xenografts; assay: In vivo phage homing to PPC1 orthotopic xenografts; design: species or system mouse
Method: as §2, §3

KRIB xenografts = assay: In vivo phage homing to KRIB xenografts; design: species or system mouse; conditions: for phage homing to KRIB xenografts (in words): i.v. injected phage
Method: as §2, §3

MMTV-PyMT breast tumors = assay: In vivo phage homing to MMTV-PyMT breast tumors; design: species or system mouse
Method: as §2, §3

VEGFR2 = biological target: T2, VEGFR2 (Homo sapiens, UniProt P35968); assay: Phage binding to VEGFR2-transfected 293T cells
T2 construct: expressed in transfected cells; host or cells: 293T cells, transient transfection with FuGene 6
Method: The 293T cells were transfected with plasmids encoding CXCR4 (Helbig et al., 2003) or VEGFR2 (Borges et al., 2000) using FuGene 6 transfection reagent (Roche Diagnostics, Indianapolis, Ind.). Briefly, plasmid (10 μg) was mixed with 900 μl of serumfree DMEM and 50 μl of FuGene and incubated for 15 min at room temperature before adding the mixture to the cells. The cells were detached using EDTA after 48 hrs post transfection and washed with PBS containing 1% BSA. Phage (5×10^9 pfu) were incubated with the transfected cells and bound phage were rescued and titrated. For competitive binding assay, the cognate peptide (150 μg/ml) or antibody (50 μg/ml) was added during incubating of the phage with cells. Targeted proapoptotic peptide treatment of tumor-bearing mice Prostate cancer model. Orthotopic xenografted prostate tumors were established by injecting 1×10^6 PPC1 human prostate cancer cells into the mouse prostate. Fifteen days post inoculation, the mice were intravenously injected with D(KLAKLAK)2-CREAGRKAC (SEQ ID NO:41), an equimolar mixture of D(KLAKLAK)2 (SEQ ID NO:19) and CREAGRKAC (SEQ ID NO:6), or PBS. Biweekly injections of 100 μg/dose/mouse were given for three weeks. Melanoma model. […] The mice were monitored for weight loss, and tumors were dissected and weighed at the termination of the experiment. […]

[7] = phage homing in vivo, MDA-MB-435 orthotopic xenografts
[8] = phage homing in vivo, TRAMP prostate tumors
[9] = phage homing in vivo, C8161 (s.c.) xenografts
[10] = phage homing in vivo, K14-HPV16 skin cancer
[11] = phage homing in vivo, PPC1 orthotopic xenografts
[12] = phage homing in vivo, KRIB xenografts
[13] = phage homing in vivo, MMTV-PyMT breast tumors
[14] = fluorescein-conjugate peptide, C8161 tumor sections

T1 sequence (P61073 whole entry, species assumed): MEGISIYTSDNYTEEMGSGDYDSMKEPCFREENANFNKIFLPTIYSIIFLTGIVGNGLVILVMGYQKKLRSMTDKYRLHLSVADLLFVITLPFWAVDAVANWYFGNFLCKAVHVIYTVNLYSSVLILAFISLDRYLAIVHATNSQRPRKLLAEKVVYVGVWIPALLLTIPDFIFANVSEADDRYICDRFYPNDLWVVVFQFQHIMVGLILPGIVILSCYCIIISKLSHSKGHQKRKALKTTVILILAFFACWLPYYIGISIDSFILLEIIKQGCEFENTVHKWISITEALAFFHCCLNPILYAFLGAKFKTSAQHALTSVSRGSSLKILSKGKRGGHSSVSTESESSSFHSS
T2 sequence (P35968 20-1356, species assumed): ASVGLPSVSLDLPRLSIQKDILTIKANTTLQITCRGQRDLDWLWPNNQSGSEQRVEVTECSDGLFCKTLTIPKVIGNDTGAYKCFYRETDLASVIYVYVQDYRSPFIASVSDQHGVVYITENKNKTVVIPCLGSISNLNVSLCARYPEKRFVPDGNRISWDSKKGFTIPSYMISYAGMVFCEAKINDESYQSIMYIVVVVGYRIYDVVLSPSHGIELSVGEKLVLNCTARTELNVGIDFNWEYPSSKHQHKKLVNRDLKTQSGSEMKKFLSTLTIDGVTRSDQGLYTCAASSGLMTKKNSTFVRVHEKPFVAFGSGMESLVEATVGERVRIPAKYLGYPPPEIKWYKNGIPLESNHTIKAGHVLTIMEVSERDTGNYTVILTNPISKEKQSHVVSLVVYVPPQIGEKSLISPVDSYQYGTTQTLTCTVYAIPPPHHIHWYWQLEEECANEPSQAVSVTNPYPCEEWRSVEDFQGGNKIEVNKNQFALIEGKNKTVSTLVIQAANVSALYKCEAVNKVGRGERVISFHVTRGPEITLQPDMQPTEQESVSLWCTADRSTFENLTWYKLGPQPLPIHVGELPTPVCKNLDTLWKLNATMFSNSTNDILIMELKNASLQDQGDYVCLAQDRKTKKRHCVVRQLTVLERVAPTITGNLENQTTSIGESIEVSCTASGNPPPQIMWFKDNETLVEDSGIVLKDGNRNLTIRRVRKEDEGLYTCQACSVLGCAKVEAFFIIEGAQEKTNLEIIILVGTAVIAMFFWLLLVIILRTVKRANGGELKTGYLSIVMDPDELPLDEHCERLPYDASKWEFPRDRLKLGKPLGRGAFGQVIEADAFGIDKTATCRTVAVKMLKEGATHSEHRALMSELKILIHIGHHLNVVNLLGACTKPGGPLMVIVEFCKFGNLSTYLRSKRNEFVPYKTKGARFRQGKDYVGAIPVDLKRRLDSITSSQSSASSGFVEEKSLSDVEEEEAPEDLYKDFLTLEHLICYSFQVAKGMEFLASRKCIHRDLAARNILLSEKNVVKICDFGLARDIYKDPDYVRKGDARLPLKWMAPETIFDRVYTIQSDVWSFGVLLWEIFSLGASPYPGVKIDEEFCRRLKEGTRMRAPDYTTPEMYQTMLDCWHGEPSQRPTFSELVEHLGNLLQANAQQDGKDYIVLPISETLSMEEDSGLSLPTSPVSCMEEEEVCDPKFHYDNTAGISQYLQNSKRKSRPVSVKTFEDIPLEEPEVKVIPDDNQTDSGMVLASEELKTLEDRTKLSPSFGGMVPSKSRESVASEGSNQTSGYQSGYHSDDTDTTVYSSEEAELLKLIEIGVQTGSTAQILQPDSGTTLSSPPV

## FITC-LSD: fluorescein-conjugated LSD peptide (CLSDGKRKC) ({FITC}-CLSDGKRKC; cysteine pairing not given here)
[1]
  fluorescent peptide homing to the other tumors, including skin cancers: negative
KRIB tumors
  fluorescent peptide homing to KRIB tumors (in words): weakly positive
C8161 tumors; FITC-LSD (150 mg) i.v., 2 hrs
  fluorescence in kidneys: A few spots of LSD fluorescence
C8161 tumors; FITC-LSD i.v., 2 hrs
  fluorescence in all other tissues except tumors: negative
C8161 tumors
  fluorescent peptide in C8161 tumors and control organs: Strong LSD peptide fluorescence

## FITC-REA: fluorescein-labeled REA peptide (CREAGRKAC) (not fully specified (N-terminus); cysteine pairing not given here; also: FITC label, position not given here)
[2]
  fluorescent peptide in K14-HPV16/E2 cervical lesions/tumors (in words): homed to a lesser extent
[3]; fluorescein-conjugated peptide
  fluorescent peptide in PPC1, M12, DU145, LNCaP orthotopic xenografts: positive
[3]; immunohistochemical analysis
  co-localization with lymphatic vessels in orthotopic prostate tumor xenografts: co-localized with lymphatic vessels

## CLSDGKRKC [homing peptide for C8161 melanoma lymphatics]
CXCR4; 293T cells
  phage binding to CXCR4-transfected 293T cells (in words): binds to 293T cells transfected with CXCR4
  phage binding to CXCR4-transfected 293T cells versus mock- or VEGFR2-transfected cells: 16 fold
CXCR4; peptide 150 μg/ml co-incubated with phage, listed as LSD peptide
  inhibition of LSD phage binding to CXCR4-transfected 293T cells: inhibits LSD-phage binding; also recorded: inhibited the binding
[4]
  binding to C8161 tumor cell suspensions relative to control phage: 100 fold
  binding to cell suspensions prepared from C8161 tumors (in words): bound to cell suspensions prepared from C8161 tumors
[5]; i.v. injected phage, listed as LSD phage
  phage homing to MDA-MB-435 tumors (in words): did not appreciably home
[5]; [7]
  Fold over control phage: 3 fold
  Specific Homing: No
TRAMP prostate tumors; i.v. injected phage
  phage homing to TRAMP prostate tumors (in words): did not appreciably home
TRAMP prostate tumors; [8]
  Fold over control phage: 1 fold
  Specific Homing: No
C8161 xenografts
  phage homing to C8161 tumors (in words): Robust phage homing
C8161 xenografts; listed as CLSDGKRKC
  phage homing to C8161 tumors (in words): homed selectively to the tumors
C8161 xenografts; listed as LSD phage
  phage homing to C8161 tumors (in words): significantly higher than in normal tissues
C8161 xenografts; i.v. injection, nude mice bearing C8161 tumors
  relative efficiency of tumor homing of the two phage: about twice as efficient as CLDGGRPKC
C8161 xenografts; [9]
  Fold over control phage: 39 fold
  Specific Homing: Yes
K14-HPV16 skin cancer; i.v. injection, K14-HPV16 mice
  homing to K14-HPV16 skin cancers (in words): possible low-level homing
K14-HPV16 skin cancer; [10]
  Fold over control phage: 5 fold
  Specific Homing: No
[6]; i.v. injected phage
  phage homing to PPC1 orthotopic xenografts (in words): did not appreciably home
[6]; [11]
  Fold over control phage: 3 fold
  Specific Homing: No
KRIB tumors
  fluorescent peptide homing to KRIB tumors (in words): slightly positive
KRIB xenografts
  phage homing to KRIB xenografts (in words): slightly positive
KRIB xenografts; listed as LSD phage
  phage homing to KRIB xenografts (in words): possible low-level homing
KRIB xenografts; [12]
  Fold over control phage: 7^‡ fold
  Specific Homing: Yes
MMTV-PyMT breast tumors; i.v. injected phage
  phage homing to MMTV-PyMT breast tumors (in words): did not appreciably home
MMTV-PyMT breast tumors; [13]
  Fold over control phage: 3 fold
  Specific Homing: No
C8161 tumors
  fluorescent peptide in C8161 tumors and control organs: detected within the tumors, but not in control organs
C8161 tumors; [14]
  co-localization with blood vessel markers MECA-32 and CD31: no co-localization
  co-localization with lymphatic vessel markers podoplanin, Prox-1, LYVE-1, VEGFR3: co-localization of the LSD fluorescence with them
C8161 tumors; fluorescein-conjugate peptide, C8161 tumors
  lymphatic vessels positive for the peptide that were also positive for podoplanin: 85%
VEGFR2
  phage binding to VEGFR2-transfected 293T cells (in words): not to cells transfected with VEGFR2
